Data reported in PMC3183320 (Protein expression and purification, 2011).
Entries after “also recorded” stand apart in the source; their conditions may differ.

Experiments:
BPV1 E6 [1] = molecular target: T1, BPV1 E6 (Bovine papillomavirus type 1, UniProt P06931); experiment: SPR; format: binding
BPV1 E6 [2] = molecular target: T1, BPV1 E6; format: physicochemical; settings: peptide provided during BPV1 E6 biosynthesis
HPV16 E6 = settings: read-out: affinity of HPV16 E6 / E6AP; ref [29]; cited from earlier work
paxillin LXXLL peptide = molecular target: T2, paxillin LXXLL peptide (Homo sapiens, UniProt P49023); experiment: SPR
T2 chain: MDDLDALLADLESTT

[3] = molecular target: T3, BPV1 E6 released from MBP-LXXLL-tevs-E6 by TEV protease (Bovine Papillomavirus Type 1, UniProt P06931 1-137); experiment: SEC
T3 sequence: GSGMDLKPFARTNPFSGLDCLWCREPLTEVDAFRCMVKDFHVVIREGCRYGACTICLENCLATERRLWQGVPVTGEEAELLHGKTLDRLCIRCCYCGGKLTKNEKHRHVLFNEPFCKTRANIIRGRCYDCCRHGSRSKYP

In the case of DDLDALLADKE [paxillin], the “dissociation phase (in words)” value (BPV1 E6 [1]; SPR sensorgrams, paxillin as compared to E6AP) is reported as “remarkably slow dissociation phase; also recorded: slow dissociation rate kinetics” and the “affinity for BPV1 E6 (in words)” value (BPV1 E6 [1]; SPR, as compared to other E6/peptide interactions) is reported as “significantly higher affinity as compared to other E6/peptide interactions; also recorded: significantly stronger; also recorded: high affinity”.

With “EFTMDDLDALLADKE [paxillin LXXLL peptide]” the “effect on BPV1 E6 protein solubility (in words)” value (BPV1 E6 [2]) was “greatly enhanced the protein’s solubility”.

For ESSELTLQELLGEER [E6AP], the Kd (HPV16 E6) is given as 4 µM.

B1: E6 (protein)
chain: MDLKPFARTNPFSGLDCLWCREPLTEVDAFRCMVKDFHVVIREGCRYGACTICLENCLATERRLWQGVPVTGEEAELLHGKTLDRLCIRCCYCGGKLTKNEKHRHVLFNEPFCKTRANIIRGRCYDCCRHGSRSKYP
Work on B1 yielded a Kd (paxillin LXXLL peptide) of 0.0351 µM.

B2: synthetic peptide derived from paxillin (LXXLL synthetic peptide) (peptide)
peptide: EFTMDDLDALLADKE
B2: binds [3].

B3: MBP-fused LXXLL peptide (MBP-LXXLL-tevs left after TEV digestion of MBP-LXXLL-tevs-E6) (peptide)
chain: MDDLDALLADGGSGSNENLYFQ
B3: binds [3].
